Results from article PMC6121244, “Differences in Functional Expression of Connexin43 and NaV1.5 by Pan- and Class-Selective Histone Deacetylase Inhibition in Heart” (International Journal of Molecular Sciences, 2018).
Read-outs that look alike come from different tables or passages of the source.

Tests used:
late INa in NMVMs = assay: Late INa, whole cell patch clamp; format: cell-based, mouse
Description: Increases in late or persistent INa have been linked to cardiac arrhythmias and heart failure. […] . Subsequently, we modified a voltage clamp ramp protocol designed to generate late INa I–V relationships. […] .

[1] = tested on: ventricular gap junction conductance (gj), Cx43-mediated; assay: Gap junction conductance (gj), dual whole cell patch clamp on NMVM cell pairs; format: cell-based, mouse
Description: Final DMSO levels were <0.005% (vol/vol).
Gap junction currents (Ij) were recorded in the dual whole cell configuration according to previously published methods. Upon establishing a dual whole cell patch, Ij was recorded using a 30 s, 20 mV trans-junctional voltage protocol. All dual whole cell current recordings were low-pass filtered at 500 Hz and digitized at 2 KHz using pClamp 8.2 and graphical analysis performed using Origin 7.5 or 8.6 software as previously described.

HDAC9 = tested on: HDAC9; design: method as in PMID 17868033; conditions: >100,000 = incomplete inhibition at 100 μM; cited from earlier work
[2] = tested on: HeLa nuclear extract HDAC activity; design: method as in PMID 17455259; conditions: incomplete inhibition; cited from earlier work
[3] = tested on: Cx43 protein expression in NMVMs; assay: Western blot of Cx43 protein level; format: cell-based, mouse; conditions: 24 h
HDAC4 = tested on: HDAC4; design: method as in PMID 17868033; conditions: >100,000 = incomplete inhibition at 100 μM; cited from earlier work
[4] = tested on: NaV1.5 protein expression in NMVMs; assay: Western blot of NaV1.5 protein level; format: cell-based, mouse; conditions: 24 h
HDAC8 [5] = tested on: HDAC8; design: method as in PMID 17868033; conditions: >100,000 = incomplete inhibition at 100 μM; cited from earlier work
HDAC8 [6] = tested on: HDAC8; design: method as in PMID 17455259; conditions: cited from earlier work
HDAC1 [7] = conditions: read-out: IC50 HDAC1, cited from earlier work
IK,to and IK,ss in NMVMs = assay: Transient and steady state outward K+ currents, whole cell patch clamp
HDAC1 [8] = tested on: HDAC1
[9] = tested on: total HDAC activity in cultured neonatal mouse ventricular cardiomyocytes; assay: Fluor de Lys total HDAC activity assay in cultured ventricular cardiomyocytes; format: cell-based; conditions: NMVMs, 18–24 h treatment; for C1, decay constant of first exponential component of HDAC inhibition curve / C2, decay constant of second exponential component of HDAC inhibition curve: double exponential fit
Description: Neonatal mice born from an inbred C57BL/6 mouse colony were anesthetized using isoflurane and the hearts were excised in accordance with procedures approved by the SUNY Upstate Medical University Institutional Animal Care and Use Committee (IACUC) # 263 on 15 March 2017. The excised hearts were separated into atria and ventricles and exposed to collagenase solution for digestion. The dissociated cells were pre-plated for 30 min to reduce fibroblast content by differential adhesion and the supernatant was collected, centrifuged and re-suspended in 1 mL/heart of M199/10% FBS culture media. The primary cells were plated into 96-well plates for HDAC activity assays, 35 mm culture dishes for patch clamp electrophysiology, or 60 mm culture dishes and homogenized after 3 days for Western blots.
Aliquots of 2 × 10^5 ventricular myocytes per well (96-well plate) were grown in 200 μL of 200 μM bromodeoxyuridine (BrDU)/M199, exchanged daily. Cell densities were counted with a hemocytometer and seeded into the wells. Wells were incubated with 2000 pmoles of the acetylated Fluor-de-Lys® substrate for 8 h during HDAC inhibition. […]

[10] = tested on: acetyl-α-tubulin and acetyl-histone 3; assay: Western blot of acetylation markers; conditions: 1 μM MS-275, 24 h
[11] = tested on: cardiac sodium current (INa) in NMVMs, primarily NaV1.5; assay: Cardiac sodium current (INa) density and Vm-dependent gNa activation/inactivation, whole cell patch clamp; format: cell-based, mouse; conditions: 18–24 h
Description: Since both the activation and inactivation of INa are dependent on the membrane potential (Vm), we calculated the normalized Na^+ conductance (gNa) by dividing the average peak INa by the difference between Vm and the reversal potential (Erev) for INa, and then divided the gNa value for each Vm by the maximum gNa value for each experiment. The gNa–Vm curves were fit with a Boltzmann function gNa= gNamax+ (gNa− gNamax)/[1+exp((Vm− V1/2)/dVm)] using Origin 8.6. […] Final DMSO levels were <0.005% (vol/vol).

[12] = tested on: total HDAC activity in cultured neonatal mouse ventricular cardiomyocytes; conditions: NMVMs, cited from earlier work; for C1, decay constant of first exponential component of HDAC inhibition curve / C2, decay constant of second exponential component of HDAC inhibition curve: double exponential fit
[13] = tested on: cardiac sodium current (INa) in NMVMs, primarily NaV1.5; design: method as in PMID 27638876; conditions: previous experiments ref 13; cited from earlier work
HDAC6 = conditions: cited from earlier work
HDAC3 = tested on: HDAC3; design: method as in PMID 17868033; conditions: >100,000 = incomplete inhibition at 100 μM; cited from earlier work
HDAC1 [14] = molecular target: HDAC1; design: method as in PMID 20139990; conditions: cited from earlier work
HDAC7 [15] = molecular target: HDAC7; design: method as in PMID 20139990; conditions: cited from earlier work
HDAC5 = molecular target: HDAC5; design: method as in PMID 20139990; conditions: cited from earlier work
HDAC2 = molecular target: HDAC2; design: method as in PMID 20139990; conditions: cited from earlier work
HDAC7 [16] = tested on: HDAC7; design: method as in PMID 17868033; conditions: >100,000 = incomplete inhibition at 100 μM; cited from earlier work
HDAC1 [17] = tested on: HDAC1; design: method as in PMID 17868033; conditions: >100,000 = incomplete inhibition at 100 μM; cited from earlier work
[18] = read-out: IC50(2), low affinity site, total HDAC activity, IC50 = 0.693·C2
[19] = adjusted values from published data ref 14
[20] = 25, 100, 500, 2500 nM panobinostat, p < 0.05
[21] = adjusted values from published data ref 13

Nc1ccccc1NC(=O)c1ccc(CNC(=O)OCc2cccnc2)cc1 [Entinostat, entinostat]
effect on late INa current density (late INa in NMVMs; 1 μM entinostat 18–24 h, Vm ramp): no increase in late INa | effect on ventricular gj ([1]; 5 μM entinostat, 18–24 h): significant reduction in gj | IC50 (HDAC9): […] | IC50 [2]: 11 µM | Cx43 protein level ([3]; 1 μM entinostat): no significant changes | IC50 (HDAC4): […] | NaV1.5 protein level ([4]; 1 μM entinostat): no significant changes | IC50 (HDAC8 [5]): […] | IC50 (HDAC8 [6]): […] | IC50 (HDAC1 [7]): […] | IC50 (HDAC1 [7]; text statement): […] | transient outward and steady state K+ currents (IK,to and IK,ss in NMVMs; 1 μM MS275, 24 h): no si gni ficant chang es | preferential inhibition of HDAC1 over other HDACs (HDAC1 [8]): 10–100 fold | C1, decay constant of first exponential component of HDAC inhibition curve [9]: 629 ± 166 nM | C2, decay constant of second exponential component of HDAC inhibition curve [9]: 12,926 ± 3655 nM | IC50 ([9]; read-out: IC50(1), high affinity site, total HDAC activity, IC50 = 0.693·C1): 0.436 ± 0.115 µM | IC50 [9, 18]: 8.96 ± 2.53 µM | Ac-H3 and Ac-α-tubulin signals [10]: only increased the Ac-H3 signal | effect on peak Na+ current density ([11]; 1 μM entinostat): no significant effect

C/C=C1\NC(=O)[C@H]2CSSCC/C=C/[C@H](CC(=O)N[C@H](C(C)C)C(=O)N2)OC(=O)[C@H](C(C)C)NC1=O [FK228, romidepsin]
C1, decay constant of first exponential component of HDAC inhibition curve [12, 19]: 7.9 ± 0.9 nM | C2, decay constant of second exponential component of HDAC inhibition curve [12, 19]: 2524 ± 678 nM | IC50 ([12]; adjusted values from published data ref 14, read-out: IC50(1), high affinity site, total HDAC activity): 0.0055 ± 0.0006 µM | IC50 ([12]; adjusted values from published data ref 14, read-out: IC50(2), low affinity site, total HDAC activity): 1.75 ± 0.47 µM | positive shift in half activation voltage (V½) [13]: +2 to +8 mV | shift in Vm-dependent gNa inactivation curve [13]: no shift

CCCC(=O)[O-].[Na+] [NaB, sodium butyrate]
increase in gj ([1]; 5 mM NaB alone): 26% | effect on gj ([1]; increasing concentrations of NaB): non-significantly increased gj in a concentration-dependent manner | activity against the class IIb HDAC6 (HDAC6): no activity

Cc1[nH]c2ccccc2c1CCNCc1ccc(/C=C/C(=O)NO)cc1 [Panobinostat, panobinostat]
effect on late INa (late INa in NMVMs; 100 or 500 nM panobinostat overnight, average current 100 to 150 msec): no difference in late INa | amplitude of exponential fit of decline in gj ([1]; 18–24 h, exponential fit): 48.5 | exponential decay constant of concentration-dependent decline in gj ([1]; 18–24 h, exponential fit): […] | effect on ventricular gj ([1]; 100, 500 or 1000 nM panobinostat, 18–24 h): significant dose-dependent decrease | Cx43 protein level [3, 20]: concentration-dependent decrease | IC50 (HDAC4): […] | NaV1.5 protein level [4, 20]: concentration-dependent decrease | IC50 (HDAC3): […] | IC50 (HDAC6; >100,000 = incomplete inhibition at 100 μM): […] | IC50 (HDAC8 [5]): […] | transient outward and steady state K+ currents (IK,to and IK,ss in NMVMs; 100 nM, 24 h): No signifi cant changes | C1, decay constant of first exponential component of HDAC inhibition curve [9]: 57.4 ± 22.2 nM | C2, decay constant of second exponential component of HDAC inhibition curve [9]: 2959 ± 838 nM | IC50 ([9]; IC50 = 0.693·C1, listed as LBH589, read-out: IC50(1), high affinity site, total HDAC activity): 0.0398 ± 0.0154 µM | IC50 ([9]; IC50 = 0.693·C1, read-out: IC50(1), high affinity site, total HDAC activity): ~0.04 µM | IC50 [9, 18]: ~2 µM | IC50 ([9]; read-out: IC50(2), low affinity site, total HDAC activity, IC50 = 0.693·C2, listed as LBH589): 2.05 ± 0.581 µM | effect on peak cardiac Na+ current density ([11]; 100 or 500 nM panobinostat): decreased the cardiac sodium current density in a dose-dependent manner

CC(/C=C/C(=O)NO)=C\[C@@H](C)C(=O)c1ccc(N(C)C)cc1 [TSA, Trichostatin A]
C1, decay constant of first exponential component of HDAC inhibition curve [12, 21]: 10.6 ± 1.3 nM | C2, decay constant of second exponential component of HDAC inhibition curve [12, 21]: 258 ± 76 nM | IC50 ([12]; adjusted values from published data ref 13, read-out: IC50(1), high affinity site, total HDAC activity): 0.0073 ± 0.0009 µM | IC50 ([12]; adjusted values from published data ref 13, read-out: IC50(2), low affinity site, total HDAC activity): 0.179 ± 0.053 µM | positive shift in half activation voltage (V½) [13]: +2 to +8 mV | shift in Vm-dependent gNa inactivation curve [13]: no shift

O=C(CCCCCCC(=O)Nc1ccc([C@H]2O[C@@H](CSc3nc(-c4ccccc4)c(-c4ccccc4)o3)C[C@@H](c3ccc(CO)cc3)O2)cc1)NO [Tubacin, tubacin]
increase in gj ([1]; 10 μM tubacin alone): 9% | effect on gj ([1]; 20 μM tubacin, highest tested dose): slight decrease | effect on gj ([1]; increasing concentrations of tubacin): non-significant increase and then decrease in gj with increasing concentration | Ki (HDAC1 [14]): 0.028 ± 0.004 µM | Ki (HDAC7 [15]): 8.5 ± 1.5 µM | Ki (HDAC5): 1.5 ± 0.25 µM | Ki (HDAC2): 0.042 ± 0.0035 µM

O=C(CCCCCCC(=O)Nc1ccccc1)NO [VOR, suberoylanilide hydroxamic acid]
C1, decay constant of first exponential component of HDAC inhibition curve [12, 21]: 140 ± 30 nM | C2, decay constant of second exponential component of HDAC inhibition curve [12, 21]: 1086 ± 312 nM

CCCC(CCC)C(=O)O [VPA, valproic acid]
IC50 (HDAC9): > 100 µM | IC50 (HDAC7 [16]): > 100 µM | IC50 (HDAC3): 3070 µM | IC50 (HDAC1 [17]): 1580 µM | IC50 (HDAC8 [5]): 7440 µM
